Experimental data from US7179934B2, “Amino acids with affinity for the α2δ-protein” (Warner-Lambert Company LLC, priority 2003, dated 2007).

Tested on: α2δ-subunit derived from porcine brain tissue
Test: radioligand binding assay using [3H]-gabapentin
Conditions: [3H]-gabapentin radioligand
Text: The ability of compounds of the present invention to bind to the α2δ-subunit of a calcium channel can be determined using the following binding assay.
The radioligand binding assay using [^3H]-gabapentin and the α2δ-subunit derived from porcine brain tissue was used. See Nicolas S. Gee et al., “The novel anticonvulsant drug, gabapentin (Neurontin), binds to the α2δ subunit of a calcium channel,” J. Biol. Chem. 271 (10):5768–76 (1996). Compounds of the invention bind with nanomolar to micromolar affinity for the α2δ protein.

affinity to the α2δ protein: 75 nM
SMILES: CCCCC(CC)CCC(CN)C(=O)O (stereo not shown) [2-aminomethyl-5-ethyl-nonanoic acid]
